Test results as given in PMC9434233, “Transmembrane helices 5 and 12 control transport dynamics, substrate affinity, and specificity in the elevator-type UapA transporter” (Genetics, 2022).
pKi: −log10 of the molar value.

Columns and labels:
[1] = molecular target: T1, UapA (Aspergillus nidulans, UniProt Q07307); assay: competition of [3H]-xanthine uptake in germinating conidiospores; type: cell-based
T1 construct: full-length UapA, C-terminal GFP-type functional tag kept, gpdA promoter, expressed in A. nidulans Δ7 strain lacking 7 major nucleobase transporters; homodimer

[2] = molecular target: T1, UapA; assay: [3H]-xanthine uptake in germinating conidiospores, initial rates; type: cell-based; settings: pH 6.8, 37°C; H+ symport; labelled compound; read-out: Km app

pKi [1] | SMILES | Km [2] [µM]
3.99 | O=c1[nH]c(=O)c2c[nH]nc2[nH]1 [OX, oxypurinol] | –
– | O=c1[nH]c(=O)c2[nH]cnc2[nH]1 [XA, xanthine] | 6
